Data reported in US5030647A, “Anti-inflammatory thienylbenzylamine compounds” (Boehringer Ingelheim Pharmaceuticals, Inc., priority 1990, dated 1991).
Structures can show the parent of a compound that is named as a salt. Where two headings read alike, the source gives them in different places.

Assays:
[1] = test system: paw swelling; assay: Reverse passive Arthus reaction, inhibition of paw swelling after oral dosing; format: in vivo; settings: rats; for inhibition in vivo at 30 mg/kg / inhibition in vivo at 100 mg/kg / inhibition in vivo at 10 mg/kg: Rattus norvegicus, po; for inhibition in vivo at 100 mg/kg: 100 mg/kg oral; for inhibition in vivo at 10 mg/kg: 10 mg/kg oral
Description: The reverse passive Arthus reaction is initiated by the interaction of antigen and antibody resulting in the formation of a precipitating immune complex, followed by fixation of complement, accumulation of leukocytes, edema and hemorrhage. The immunopathology of rheumatoid arthritis involves many of the parameters found in this reaction. Test groups (5 rats per group) are dosed orally with compounds one hour prior to the sub-plantar injection into the right hind paw of rabbit anti-ovalbumin antibody (50 μg/0.1 ml). Immediately afterwards, ovalbumin (Sigma, #5503) (5 mg/0.2 ml) is injected i.v. via the tail vein. The right hind paw volume is measured at hourly intervals, from one to four hours after the injection of the immune reactants. The change in paw volume for each animal is calculated by subtracting zero hour paw volume (before injection) from the paw volume at the time of measurement. The mean of these values is calculated for each group. Results are expressed in Table I below as percent inhibition of paw swelling compared to untreated controls.

[2] = test system: human PMN; assay: Chemotaxis of human peripheral leukocytes (human PMN chemotaxis, FMLP as chemoattractant); format: cell-based; settings: Leukocyte, FMLP 1×10^-8 M; for inhibition at 1 µM: read-out: PERCENT INHIBITION (human PMN chemotaxis) 1 μM; for inhibition at 0.01 µM: read-out: PERCENT INHIBITION (human PMN chemotaxis) 0.01 μm
Description: A) Equal parts of citrated peripheral venous blood drawn from a normal volunteer were mixed with saline containing 6% dextran. The mixture was allowed to sediment for 30-40 minutes in a 50 ml polypropylene centrifuge tube. B) The plasma was decanted and centrifuged at 1500 rpm for 7 minutes and washed with saline. C) The supernatant was decanted and the contaminating red blood cells were eliminated by adding ice cold lysing solution and allowing the cell suspension to stand on ice for 5 minutes. […] E) The tubes were centrifuged at 400g for 30 minutes at room temperature. F) The supernatant was decanted and the PMNs (pelleted on the bottom of the tubes) were washed with saline and with Hanks buffer. The cells were adjusted to a final concentration of 3×10^6 cells/ml in Hanks buffer containing 0.5% BSA. 1) Chemoattractant: serial dilution was prepared of the stocks (10^-3 M) N-Formyl-methionyl-leucylphenylalanine in Hanks buffer and 130 μl of 1×10^-8 M solution was pipetted into the lower bottom chamber. The bottom chamber of the negative control was filled with saline. 2) Placed Millipore membranes to completely cover the wells and allowed the liquid to absorb. 3) Placed on upper chamber and tighten retaining nuts. 1) Sample preparation: Mixed equal volume of sample diluted in Hanks buffer containing […] and cell suspension in a test tube prior to pipetting 200 μl into appropriate duplicate chambers. 2) Incubated chambers at 37° C. for 40-60 minutes. 10) Three to five fields per membrane were counted with the aid of the Image Analyser (optimal 40-10). Special effort was made to select a standard for evaluating the cell monolayer in which the distribution of cells in the field of view is uniform. The number of cells at each […] level beneath the selected monolayer was then counted and the chemotactic index (CI) calculated by multiplying the individual cell count at each level by their corresponding depth of penetration, and taking the sum of these numbers. 11) The results in Table II are recorded as percent inhibition. Percent inhibition by each thienylbenzylamime was calculated as follows: [formula] The CI of the control was determined by conducting the assay with N-formyl-methionyl-leucylphenylalanine (FMLP) alone without any thienlbenzylamine. The background was determined by conducting the assay without any FMLP.

[3] = 2 h, 30 mg/kg oral, 2 hours, read-out: % INHIBITION (of paw swelling) HOUR 2
[4] = 3 h, 30 mg/kg oral, 3 hours, read-out: % INHIBITION (of paw swelling) HOUR 3
[5] = 4 h, 30 mg/kg oral, 4 hours, read-out: % INHIBITION (of paw swelling) HOUR 4
[6] = 2 h, 2 hours, read-out: % INHIBITION (of paw swelling) HOUR 2
[7] = 3 h, 3 hours, read-out: % INHIBITION (of paw swelling) HOUR 3
[8] = 4 h, 4 hours, read-out: % INHIBITION (of paw swelling) HOUR 4

Row | SMILES | inhibition in vivo at 30 mg/kg [1, 3] [%] | inhibition in vivo at 30 mg/kg [1, 4] [%] | inhibition in vivo at 30 mg/kg [1, 5] [%] | further results
1 | CN(C)Cc1ccccc1C(O)c1c(Cl)sc(Cl)c1Cl (stereo not drawn) [Compound 31, 2,4,5-Trichloro-3-[(2-N,N-dimethylaminomethylphenyl)hydroxymethyl]thiophene hydrochloride] | 44 | 32 | 0 | –
2 | CN1Cc2ccccc2C1c1ccc(Cl)s1 (stereo not drawn) [Compound 14] | 64.4 | 49.9 | 17.8 | inhibition at 1 µM [2]: 51%; inhibition at 0.01 µM [2]: 0%
3 | CC(c1ccccc1C(O)c1csc(Br)c1)N(C)C (stereo not drawn) [Compound 35, 5-bromo-3-[2-(1-N,N-dimethylaminoethylphenyl)hydroxymethyl]thiophene] | 58 | 48 | 9 | –
4 | CN(C)Cc1ccccc1C(O)c1cc(Cl)sc1Cl (stereo not drawn) [Compound 25, 2,5-dichloro-3[(2-N,N-dimethylaminomethylphenyl)hydroxymethyl]thiophene hydrochloride] | 68 | 64 | 38 | –
5 | CN(C)Cc1ccccc1C(O)c1cc(Br)cs1 (stereo not drawn) [Compound 18, 4-bromo-2-[(2-dimethylaminomethylphenyl)hydroxymethyl]thiophene] | 35 | 37 | 40 | –
6 | CN(C)Cc1ccccc1C(O)c1sccc1Cl (stereo not drawn) [Compound 5, 3-chloro-2-[(2-dimethylaminomethylphenyl)hydroxymethyl]thiophene] | 35.6 | 13.6 | 32.3 | inhibition at 1 µM [2]: 34%; inhibition at 0.01 µM [2]: 34%
7 | CN(C)Cc1ccc(C(O)c2ccccc2CN(C)C)s1 (stereo not drawn) [Compound 10, 5-N,N-dimethylaminomethyl-2-[2-(N,N-dimethylaminomethylphenyl)hydroxymethyl]thiophene] | 55.6 | 21.6 | 19.4 | –
8 | CN(C)Cc1ccccc1C(O)c1cscc1Br (stereo not drawn) [Compound 26, 4-bromo-3-[(2-N,N-dimethylaminomethylphenyl)hydroxymethyl]thiophene hydrochloride] | 42 | 25 | 6 | –
9 | CN(C)Cc1ccccc1C(O)c1ccc(Cl)s1.O=C(O)/C=C/C(=O)O (stereo not drawn) [Compound 16, 5-chloro-2-[-(2-dimethylaminomethylphenyl)-1-hydroxymethyl]thiophene monofumarate] | – | – | – | % INHIBITION (of paw swelling) HOUR 2 ([1]; 30 mg/kg oral, 2 hours): 17%; % INHIBITION (of paw swelling) HOUR 3 ([1]; 30 mg/kg oral, 3 hours): 11%; % INHIBITION (of paw swelling) HOUR 4 ([1]; 30 mg/kg oral, 4 hours): 0%
10 | CN(C)Cc1ccccc1C(O)c1ccc(Br)s1 (stereo not drawn) [Compound 15] | 63.1 | 47.1 | 26.7 | –
11 | CN(C)Cc1ccccc1C(=O)c1ccsc1 [Compound 37, 3-[2-(2-N,N-dimethylaminomethylphenyl)carbonyl]thiophene] | 0 | 0 | 0 | –
12 | Cc1cc(Cl)sc1C(O)c1ccccc1CN(C)C (stereo not drawn) [Compound 13, 5-chloro-2-[(dimethylaminomethylphenyl)hydroxymethyl]-3-methylthiophene] | 66.8 | 24.1 | 7.3 | inhibition in vivo at 100 mg/kg [1, 6]: 51.7%; inhibition in vivo at 100 mg/kg [1, 7]: 28.6%; inhibition in vivo at 100 mg/kg [1, 8]: 3.3%
13 | CC(c1ccccc1C(O)c1ccc(Cl)s1)N(C)C (stereo not drawn) [Compound 36, 5-chloro-2-[2-(1-N,N-dimethylaminoethylphenyl)hydroxymethyl]thiophene hydrochloride] | 52 | 15 | 3 | –
14 | CN(C)Cc1ccccc1C(O)c1sccc1Br (stereo not drawn) [Compound 17, 3-bromo-2-[(2-dimethylaminomethylphenyl)hydroxymethyl]thiophene monofumarate] | 49 | 5 | 0 | –
15 | CN(C)Cc1ccccc1C(O)c1ccc(Cl)s1 (stereo not drawn) [Compound 1, 5-chloro-2-[(2-dimethylaminomethylphenyl)hydroxymethyl]thiophene] | – | – | – | inhibition in vivo at 10 mg/kg [1, 6]: 54%; inhibition in vivo at 100 mg/kg [1, 6]: 87.5%; inhibition in vivo at 10 mg/kg [1, 7]: 23.1%; inhibition in vivo at 100 mg/kg [1, 7]: 71.5%; inhibition in vivo at 10 mg/kg [1, 8]: 17.1%; inhibition in vivo at 100 mg/kg [1, 8]: 67.8%
16 | CC(=O)c1ccc(C(O)c2ccccc2CN(C)C)s1 (stereo not drawn) [Compound 20, 5-acetyl-2-[(2-dimethylaminomethylphenyl)hydroxymethyl]thiophene] | 12 | 15 | 2 | –
17 | CN(C)Cc1ccccc1C(O)c1scc(Br)c1Br (stereo not drawn) [Compound 27, 3,4-dibromo-2-[(2-N,N-dimethylaminomethylphenyl)hydroxymethyl]thiophene hydrochloride] | 39 | 25 | 10 | –
18 | CN(C)Cc1ccccc1C(O)c1csc(I)c1 (stereo not drawn) [Compound 28, 5-iodo-3-[(2-N,N-dimethylaminomethylphenyl)hydroxymethyl]thiophene hydrochloride] | 21 | 0 | 13 | –
19 | CN(C)Cc1ccccc1C(O)c1ccc(C2(C)OCCO2)s1 (stereo not drawn) [Compound 19, 2-[(2-dimethylaminomethylphenyl)hydroxymethyl]-5-(1,1-ethylenedioxyethyl) thiophene] | 40 | 37 | 11 | –
20 | CN(C)Cc1ccccc1C(C)(O)c1ccc(Br)s1 (stereo not drawn) [Compound 34, N,N-dimethyl-2-[1-(5-bromothien-2-yl)-1-hydroxyethyl]benzylamine] | 66 | 49 | 14 | –
21 | CN(C)Cc1ccccc1C(O)c1sc(Cl)cc1Cl (stereo not drawn) [Compound 32, 3,5-dichloro-2-[(N,N-dimethylaminomethylphenyl)hydroxymethyl]thiophene hydrochloride] | 62 | 47 | 12 | –
22 | CN(C)Cc1ccccc1C(O)c1csc(Cl)c1Cl (stereo not drawn) [Compound 30, 4,5-dichloro-3-[(2-N,N-dimethylaminomethylphenyl)hydroxymethyl]thiophene hydrochloride] | 47 | 36 | – | –
23 | CN(C)Cc1ccccc1C(O)c1cc(I)sc1I (stereo not drawn) [Compound 29, 2,5-diiodo-3-[(2-N,N-dimethylaminomethylphenyl)hydroxymethyl]thiophene hydrochloride] | 50 | 29 | 0 | –
